In brackets after ≈: the same amount, converted by molar mass.
Assays:
C. ater ATCC 14247 = assay: Broth macrodilution MIC/MFC; format: cell-based, Cryptococcus ater
Experimental: (§1) TMPN was screened against yeasts by the broth macrodilution assay according to the NCCLS [7]. Yeasts were suspended and diluted as recommended to yield final inocula ranging from 0.5-2.5×10^3 cfu/ml. Tests were performed in sterile 12 by 75 mm plastic tubes containing two-fold dilutions of TMPN in 0.165 M morpholinepropanesulfonic acid buffered RPMI 1640 medium (pH 7.0). One tube was again left drug free (but contained an equivalent volume of DMSO) for a turbidity control. Tubes were incubated without agitation at the appropriate temperature (see Fungal Strains section above). MICs were determined after 72 h for Cryptococcus and after 48 h for other yeast genera. The MIC was defined as the lowest concentration of TMPN that inhibited all visible growth of the test organism (optically clear).
(§2) Minimum fungicidal concentrations (MFCs) were determined by subculturing 0.1 ml from each tube with no visible growth in the MIC broth macrodilution series onto the appropriate drug-free plates (see Fungal Strains section above).

C. glabrata (8) = assay: Broth macrodilution MIC/MFC; format: cell-based, Candida glabrata
Experimental: as §1, §2

C. glabrata ATCC 2001 = assay: Broth macrodilution MIC/MFC; format: cell-based, Candida glabrata
Experimental: as §1, §2

C. glabrata ATCC 90030 = assay: Broth macrodilution MIC/MFC; format: cell-based, Candida glabrata
Experimental: as §1, §2

C. utilis ATCC 22023 = assay: Broth macrodilution MIC/MFC; format: cell-based, Candida utilis
Experimental: as §1, §2

C. utilis ATCC 9226 = assay: Broth macrodilution MIC/MFC; format: cell-based, Candida utilis
Experimental: as §1, §2

[1] = system: C. viswanathii ATCC 22981; assay: Broth macrodilution MIC/MFC; format: cell-based, Candida viswanathii
Experimental: as §1, §2

T. asahii ATCC 20039 = assay: Broth macrodilution MIC/MFC; format: cell-based, Trichosporon asahii
Experimental: as §1, §2

[2] = system: A. niger (ASU culture collection); assay: Broth macrodilution MIC/MFC, filamentous fungi; format: cell-based, Aspergillus niger
Experimental: Susceptibility testing of filamentous fungi was also conducted. Broth macrodilution susceptibility testing of P. lilacinus, Rhizopus spp. and Aspergillus spp. was performed in accordance with a proposed standardized procedure with slight modification. To induce conidium and sporangiospore formation, fungi were grown on PDA slants at 35° C. for 6 days (P. lilacinus, Rhizopus spp., all Aspergillus species except A. nidulans) or 3 days (A. nidulans). Fungal slants were covered with sterile 0.85% NaCl (P. lilacinus, Rhizopus spp., all Aspergillus species except A. nidulans) or 0.05% Tween 80 (A. nidulans), and suspensions were made by gently probing the colonies with the tip of a sterile Pasteur pipette. The resulting mixture of hyphal fragments and conidia or sporangiospores was withdrawn and transferred to a sterile clear microcentrifuge tube, and heavy particles were allowed to settle for 10 min. […] Susceptibility to TMPN was then determined by broth macrodilution as described above for yeast isolates. […]
as §2

fungal = assay: Frequency of fungal spontaneous mutations to resistance (summary); format: cell-based; details: summary statement
Experimental: Determination of the frequency of occurrence of spontaneous mutants was performed as previously described. Overnight cultures of C neoformans (ATCC 90112), C. albicans (ATCC 90028) and Trichosporon inkin (ATCC 18020) were diluted to an OD530 nm=0.3. 0.1 ml of each preparation was spread onto SDA plates containing four or eight times the broth macrodilution MIC of TMPN. The starting inoculum for each organism was also diluted and plated onto drug-free SDA plates for determination of cfu/ml. After a 48 h incubation at the appropriate temperature (see Fungal Strains section above), the number of colonies on drug-supplemented SDA was counted. The frequency of occurrence of spontaneous mutants was calculated by dividing the number of colonies on drug-containing plates by the number of colonies in the inoculum. When no colonies were visualized on drug-containing plates, the calculation was (<) 1 colony divided by the number of colonies in the inoculum.

C. albicans (ATCC 90028) = assay: Video-enhanced DIC microscopy of yeast/hyphal morphology; format: cell-based, Candida albicans
From the text: The mechanism of action of TMPN was investigated microscopically, Candida albicans (ATCC 90028) cultures were exposed to one quarter or one half times the broth macrodilution MIC of TMPN in DMSO, or an equivalent concentration of DMSO for controls, until late-log phase. Cells were examined using an Axioscope microscope (Carl Zeiss, Thornwood, N.Y.) equipped with standard differential interference contrast (DIC) using a Plan-Neofluar 100×/1.3 (oil immersion) objective. The microscope was coupled to a C24007-07 (imaging tube camera type) video camera, via a 4×extension tube (Carl Zeiss), and an analog control unit (Hammamatsu Photonic Systems Corp., Bridgewater, N.J.). Real-time digital contrast enhancement was done with an Argus 10 Image Processor (Hammamatsu). Single frame images were digitized directly or from videotaped sequences using a Sony UP-5600MD video/digital printer (Sony Electronics, Inc., Montvale, N.J.) and prepared for printing in Photoshop 5.0 (Adobe Systems, Mountain View, Calif.). Final images were printed with a NP-1600M Medical Color Printer (Codonics, Inc., Middleburg Heights, Ohio).

With COc1cc(C=C[N+](=O)[O-])cc(OC)c1OC [TMPN, 1-(3′,4′,5′-trimethoxyphenyl)-2-nitro-ethylene] the “MFC Range” value (C. ater ATCC 14247) was 16 µg/mL (≈ 66.9 µM), the “MIC Range” value (C. ater ATCC 14247) was 8 µg/mL (≈ 33.4 µM) and the “MIC Range” value (C. glabrata (8)) was 8 to 32 µg/mL. For the same compound, the “MFC Range” value (C. glabrata ATCC 2001) was 16 µg/mL (≈ 66.9 µM), the “MIC Range” value (C. glabrata ATCC 2001) was 8 µg/mL (≈ 33.4 µM) and the “MFC Range” value (C. glabrata ATCC 90030) was 16 µg/mL (≈ 66.9 µM). For the same compound, the “MIC Range” value (C. glabrata ATCC 90030) was 4 µg/mL (≈ 16.7 µM), the “MFC Range” value (C. utilis ATCC 22023) was 8 µg/mL (≈ 33.4 µM) and the “MIC Range” value (C. utilis ATCC 22023) was 8 µg/mL (≈ 33.4 µM). The “MFC Range” value (C. utilis ATCC 9226) was 8 µg/mL (≈ 33.4 µM), the “MIC Range” value (C. utilis ATCC 9226) was 4 µg/mL (≈ 16.7 µM) and the “MFC Range” value [1] was greater than 64 µg/mL. The “MIC Range” value [1] was 32 µg/mL (≈ 134 µM), the “MFC Range” value (T. asahii ATCC 20039) was 16 µg/mL (≈ 66.9 µM) and the “MIC Range” value (T. asahii ATCC 20039) was 8 µg/mL (≈ 33.4 µM). For the same compound, the “MFC Range” value [2] was 64 µg/mL (≈ 268 µM), the “MIC Range” value [2] was 16 µg/mL (≈ 66.9 µM) and the “frequency of fungal spontaneous mutations to resistance” value (fungal) was < 10^−6. For the same compound, the “cells with hyphal extensions” value (C. albicans (ATCC 90028); one half times the TMPN MIC) was “not observed”, the “growth morphology observed (FIG. 4 panel b)” value (C. albicans (ATCC 90028); one half times the TMPN MIC) was “only yeast growth” and the growth rate (C. albicans (ATCC 90028); one half times the TMPN MIC) was “same rate as controls”. The hyphae seen (C. albicans (ATCC 90028); one quarter times the TMPN MIC) was “rarely seen”, the length of hyphae (C. albicans (ATCC 90028); one quarter times the TMPN MIC) was less than 20 μm and the yeast/hyphae switching (C. albicans (ATCC 90028); sub-MIC exposure) was “did not exhibit yeast/hyphae switching”.

— patent US20050014849A1, “Antifungal phenylethylene” (priority 2001, published 2005)
